From the NIST ThermoML archive (doi:10.1016/j.fluid.2005.12.004) come the findings set out here.

± gives the expanded uncertainty stated by the source.

For the series the following is noted: Liquid, Closed cell (Static) method.

On to `FC(F)(F)C(F)(F)F` [hexafluoroethane], for which the “vapor or sublimation pressure” value reads like this: (189.31 K) 73.9 ± 4 kPa; (192.63 K) 88.5 ± 4 kPa; (247.63 K) 883 ± 4.8 kPa; (252.8 K) 1038.2 ± 5 kPa.

As a reminder, the vapor or sublimation pressure is the equilibrium pressure above the liquid or solid.
